Earlier results in publication PMC9884426, “A phase 1 clinical trial of the repurposable acetyllysine mimetic, n-methyl-2-pyrrolidone (NMP), in relapsed or refractory multiple myeloma” (Clinical Epigenetics, 2023).

Tested on: BET-bromodomains
Parameters: method as in PMID 26047594, PMID 24813887
Conditions: suppression of LPS-induced TNFα-secretion, downregulation of cMYC expression; cited from earlier work

SMILES: CN1CCCC1=O [NMP, N-methyl-2-pyrrolidone]
- concentration at which NMP phenocopies effects of BET-inhibitors: 1 to 10 mM
